Data on five molecules can be found in paper PMC5215778, “Molecular Characterization of N-glycan Degradation and Transport in Streptococcus pneumoniae and Its Contribution to Virulence” (PLoS Pathogens, 2017).

In data set [1] the target is T1, NgtS (Streptococcus pneumoniae, UniProt A0A0H2UMY0).
T1 construct: gene SP_0092; residues 25-491, secretion signal peptide and lipobox removed, C-terminal six-histidine tag, expressed in E. coli BL21 Star (DE3)
Put plainly: UV difference titration. The following applies: read-out: affinity constant; bimolecular binding model with ligand depletion.

In data set [2] the target is T1, NgtS. Put plainly: ITC. The following applies: 20 mM Tris, pH 8.0, 25 °C; 1:1 binding.
Data set [3] deals with T2, SpGH92 (Streptococcus pneumoniae, UniProt A0A0H2US35).
T2 construct: gene SP_2145
In words: UPLC-MS. It counts as biochemical. The following applies: 10 mM MOPS pH 7.0, 2 mM CaCl2, room temperature, 16 h, 0.6 μM substrate, 1 μM enzyme.

Data set [4] has as its target T2, SpGH92. Put plainly: X-ray crystal structure, […] Å. It counts as binding. The conditions noted are these: crystal soaked with α-(1,2)-mannobiose; mannose in +1 subsite, Ca2+ and glycerol bound.
Data set [5] deals with the molecule itself. Put plainly: crystal structure; crystals grown in 2.25 M (NH4)2SO4, 0.1 M Bis-Tris pH 5.5, soaked with α-(1,2)-mannobiose; four molecules in the asymmetric unit.

T1 sequence (A0A0H2UMY0 25-491): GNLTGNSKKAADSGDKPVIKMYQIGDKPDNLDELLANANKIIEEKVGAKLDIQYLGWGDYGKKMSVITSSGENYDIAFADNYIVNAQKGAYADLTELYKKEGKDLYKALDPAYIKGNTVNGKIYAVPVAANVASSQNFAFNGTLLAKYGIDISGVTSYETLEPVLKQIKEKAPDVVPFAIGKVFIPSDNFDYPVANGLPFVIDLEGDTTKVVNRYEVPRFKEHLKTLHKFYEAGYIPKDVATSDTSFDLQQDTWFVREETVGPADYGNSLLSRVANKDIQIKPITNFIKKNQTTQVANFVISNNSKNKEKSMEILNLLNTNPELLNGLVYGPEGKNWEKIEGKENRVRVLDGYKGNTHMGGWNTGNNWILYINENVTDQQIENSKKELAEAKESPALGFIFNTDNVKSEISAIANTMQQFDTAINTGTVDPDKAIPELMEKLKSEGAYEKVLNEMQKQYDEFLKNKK

As to `CC(=O)N[C@H]1C(O)O[C@H](CO)[C@@H](O[C@@H]2O[C@H](CO)[C@@H](O)[C@H](O)[C@@H]2O)[C@@H]1O` (some centres unmarked) [Man1GlcNAc], the Kd at NgtS [1] is 83.3 µM.

Consider `CC(=O)N[C@H]1C(O)O[C@H](CO)[C@@H](O[C@@H]2O[C@H](CO[C@H]3O[C@H](CO[C@H]4O[C@H](CO)[C@@H](O)[C@H](O)[C@@H]4O)[C@@H](O)[C@H](O[C@H]4O[C@H](CO)[C@@H](O)[C@H](O)[C@@H]4O)[C@@H]3O)[C@@H](O)[C@H](O[C@H]3O[C@H](CO)[C@@H](O)[C@H](O)[C@@H]3O)[C@@H]2O)[C@@H]1O` (some centres unmarked) [Man5GlcNAc], for which the Ka at NgtS [2] is listed as 1.04 (± 0.01)×10^6. For the molecule `CC(=O)N[C@H]1[C@H](O[C@H]2[C@H](O)[C@@H](NC(C)=O)C(O)O[C@@H]2CO)O[C@H](CO)[C@@H](O[C@@H]2O[C@H](CO[C@H]3O[C@H](CO[C@H]4O[C@H](CO)[C@@H](O)[C@H](O)[C@@H]4O[C@H]4O[C@H](CO)[C@@H](O)[C@H](O)[C@@H]4O)[C@@H](O)[C@H](O[C@H]4O[C@H](CO)[C@@H](O)[C@H](O)[C@@H]4O[C@H]4O[C@H](CO)[C@@H](O)[C@H](O)[C@@H]4O)[C@@H]3O)[C@@H](O)[C@H](O[C@H]3O[C@H](CO)[C@@H](O)[C@H](O)[C@@H]3O[C@H]3O[C@H](CO)[C@@H](O)[C@H](O)[C@@H]3O[C@H]3O[C@H](CO)[C@@H](O)[C@H](O)[C@@H]3O)[C@@H]2O)[C@@H]1O` (some centres unmarked) [Man9GlcNAc2], the UPLC-MS result at SpGH92 [3] was “treatment of Man9GlcNAc2 with SpGH92 produced a glycan having a mass consistent with Man5GlcNAc2”.

`OC[C@H]1OC(O)[C@@H](O)[C@@H](O)[C@@H]1O` (some centres unmarked) [mannose]: the “X-ray crystal structure, 2.15 Å” value at SpGH92 [4] is listed as “electron density consistent with a single mannose residue, resulting from the hydrolysis”.

B1: SpGH92 (SP_2145), α-(1,2)-mannosidase from Streptococcus pneumoniae TIGR4 (enzyme)
chain: MKPLLETIDTRFGTTNKHAFSRGNTLPYTGVPFGMNYFVPQTSDQDGSWFFDPHLPIFQGIRLTHQPSPWIGDYSWLLLTPVTSQLGGDSLFHRQSSYDIDKACFQPHYLKLFSLRYQIETQLTPTCYGASIRLNQKQGKALSLYLHAADELTVEQVDKRTLALRQEGKTETNKNSLTMFTALQMNTDILAISQEAGDWRIDLASSQTEMQLATSFISPSQALINLPQEDFDSCKSSAQVDWENLLHRFDIIETGEADRTFFDHCLYRLFLFPQTFYEINESGQAIHMDLATGTVKPGVLFSNNGFWDTFRTTFPLFALIIPEHYQRFLEGFLNSYRDTGFLPKWLAPDERGMMPGTLLDGIIADSACKDMTPDLEGELFQAMLETASKADPLGINGRHGLAQYQELGYLSTDHHESVSHTLDYAYSDFCIASCAKKLENIEIAETYKAASQNYRQLFDAETGYMRARDNQGNFHPDFSPYSWGRDYAECSAIQATLGVLHDIPGLIQLMGGKETFSNYLLKACQDAPLFETTGYGYEIHEMSEMATAPFGQIAISNQPSFHIPYLFRYSDYPDYTALLIKTLRQKAFHPSWEAYPGDEDNGSLSAWYIWSALGFYPTCPGKPSYDLGIPLFDHLRVYLAKEDKWLDIHTKQNHNHFNFVKECRLDKTLVSTIQHQDLLKAEQLTFTLSWLPSH
notes: SpGH92, family 92 glycoside hydrolase, S. pneumoniae TIGR4 locus tag SP_2145, amino acids 1-694, cloned in pET28a between NheI and XhoI; Tetramer with D2 symmetry in the crystal and in solution; theoretical molecular weight of the tetramer 325.96 kDa; source: E. coli BL21 Star (DE3), autoinduction, purified (Ni-NTA)
Broadly, the stoichiometry N is a count of units in the complex or per binding partner. As for B1, the “stoichiometry N” value in data set [5] was determined as 4.
